Source: patent US20050043412A1, “Remedies for glaucoma comprising bunazosin and prostaglandins” (SANTEN PHARMACEUTICAL CO LTD, priority 2002, published 2005)
Counter-ions that a name gives are not always drawn.

Test system: intraocular pressure of cynomolgus monkeys
Test: Effect on intraocular pressure in normal cynomolgus monkeys after topical instillation
Format: in vivo, cynomolgus monkeys (Macaca fascicularis)
Conditions: normal cynomolgus monkey, single eye, 20 μl instillation (Detantol 0.01% bunazosin hydrochloride; Xalatan 0.005% latanoprost; combination: Xalatan 5 minutes after Detantol); IOP measured 2, 4 and 6 hours after administration
Protocol: So as to study the utility of bunazosin in combination with prostaglandin, bunazosin and prostaglandin were administered in combination to cynomolgus monkeys (Macaca fascicularis), examining the effect on intraocular pressure. Latanoprost was used as prostaglandin.
For bunazosin administration, Detantol (trade mark) ophthalmic solution, which contains bunazosin hydrochloride at 0.01%, was used. For latanoprost administration, Xalatan (trade mark) ophthalmic solution, which contains latanoprost at 0.005%, was used.
Cynomolgus monkeys were divided into four groups, a group to be dosed with a vehicle (vehicle group), a group to be dosed with bunazosin (bunazosin group), a group to be dosed with latanoprost (latanoprost group) and a group to be dosed with bunazosin and latanoprost [(bunazosin+latanoprost) group].
• 1. For topical anesthesia, a drop of 0.4% oxybuprocain hydrochloride ophthalmic solution was instilled into a single eye of each normal cynomolgus monkey. Then, intraocular pressure was measured before drug administration. • 2. […] 2, 4 and 6 hours after the administration of these test compound solutions, one drop of 0.4% oxybuprocain hydrochloride eye drops was instilled for topical anesthesia, and the intraocular pressure was measured. The maximum reduction of intraocular pressure in each group was determined by the following formula. […]

Compound	Maximum reduction of intraocular pressure
CCCC(=O)N1CCCN(c2nc(N)c3cc(OC)c(OC)cc3n2)CC1 [Bunazosin, Bunazosin hydrochloride]	1.9 mmHg
CC(C)OC(=O)CCC/C=C\C[C@@H]1[C@@H](CC[C@@H](O)CCc2ccccc2)[C@H](O)C[C@@H]1O [Latanoprost]	2.6 mmHg
